Measurements published in patent publication US8163909B2, “Substituted hydroxyethyl amine compounds as beta-secretase modulators and methods of use” (Amgen Inc., priority 2007, dated 2012).
Read-outs that look alike come from different tables or passages of the source.

Key:
[1] = biological target: Beta Secretase enzyme (BACE) (Homo sapiens, UniProt P56817); test: In vitro enzymatic BACE FRET (fluorescence resonance energy transfer) assay; assay type: biochemical;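 note: fluorescence read after 1 h with 50 nM quenched peptide substrate spanning the BACE cleavage site, in pH 4.2 acetate buffer containing 10% DMSO and nonionic detergent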
Chain of Beta Secretase enzyme (BACE) (P56817 46-501): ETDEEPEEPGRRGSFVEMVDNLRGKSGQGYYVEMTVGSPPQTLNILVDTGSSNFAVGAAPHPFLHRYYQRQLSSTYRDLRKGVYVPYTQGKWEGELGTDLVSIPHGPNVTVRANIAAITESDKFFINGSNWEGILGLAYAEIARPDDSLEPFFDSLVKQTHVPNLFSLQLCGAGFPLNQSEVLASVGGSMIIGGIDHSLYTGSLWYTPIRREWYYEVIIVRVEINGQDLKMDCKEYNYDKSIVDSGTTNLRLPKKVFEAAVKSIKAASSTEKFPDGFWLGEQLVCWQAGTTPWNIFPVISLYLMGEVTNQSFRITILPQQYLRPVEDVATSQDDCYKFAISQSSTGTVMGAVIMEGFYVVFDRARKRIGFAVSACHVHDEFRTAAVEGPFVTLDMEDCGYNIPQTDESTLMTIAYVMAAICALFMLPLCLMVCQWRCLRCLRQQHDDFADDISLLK

[2] = tested on: Aβ40 in conditioned medium of cells stably expressing Amyloid Precursor Protein (APP); test: In vitro BACE cell-based assay (Aβ40 in conditioned medium, sandwich ELISA); conditions: Homo sapiens;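 note: compounds added as a dilution series, secreted peptide quantified by europium time-resolved fluorescence readout, potency fitted from percent of control versus compound concentration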
CYP3A4 (CYP3A) = CYP3A4 (CYP3A) (Homo sapiens, UniProt P08684); test: in vitro; conditions: microsomes, pH 7.4;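 note: inhibition of CYP3A-mediated 1-hydroxymidazolam formation after 10 min incubation with NADPH, quantified by HPLC MS relative to metabolite produced without test compound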
Chain of CYP3A4 (CYP3A) (P08684 2-503): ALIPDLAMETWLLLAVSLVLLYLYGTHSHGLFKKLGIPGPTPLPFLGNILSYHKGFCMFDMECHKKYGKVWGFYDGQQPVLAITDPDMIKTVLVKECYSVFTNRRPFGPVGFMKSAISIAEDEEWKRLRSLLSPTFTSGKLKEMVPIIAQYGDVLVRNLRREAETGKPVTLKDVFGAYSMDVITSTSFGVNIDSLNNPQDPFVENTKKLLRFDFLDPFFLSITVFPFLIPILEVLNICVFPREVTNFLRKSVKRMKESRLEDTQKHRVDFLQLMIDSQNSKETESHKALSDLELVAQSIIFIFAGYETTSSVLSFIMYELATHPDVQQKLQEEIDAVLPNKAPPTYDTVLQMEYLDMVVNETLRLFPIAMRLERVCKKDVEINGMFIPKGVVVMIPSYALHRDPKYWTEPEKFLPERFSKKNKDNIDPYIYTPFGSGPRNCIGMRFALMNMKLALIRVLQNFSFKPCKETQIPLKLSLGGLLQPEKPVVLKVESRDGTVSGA

[3] = Microsomal stability assay, rat liver microsomes;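 note: rat liver microsomes (0.25 mg/mL) with about 1 µM compound plus 1 mM NADPH, pH 7.4, 37 °C for 30 min, parent left measured by LC-MS/MS against 0 min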
[4] = Microsomal stability assay, human liver microsomes;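 note: pooled human liver microsomes at 0.25 mg/mL with 1 µM compound and NADPH at 37 °C, pH 7.4, for 30 min, unchanged parent quantified by LC-MS/MS against the 0 min sample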
CYP2D6 = CYP2D6 (Homo sapiens, UniProt P10635); test: CYP2D6 inhibition assay (bufuralol, pooled human liver microsomes)
Chain of CYP2D6 (P10635 whole entry): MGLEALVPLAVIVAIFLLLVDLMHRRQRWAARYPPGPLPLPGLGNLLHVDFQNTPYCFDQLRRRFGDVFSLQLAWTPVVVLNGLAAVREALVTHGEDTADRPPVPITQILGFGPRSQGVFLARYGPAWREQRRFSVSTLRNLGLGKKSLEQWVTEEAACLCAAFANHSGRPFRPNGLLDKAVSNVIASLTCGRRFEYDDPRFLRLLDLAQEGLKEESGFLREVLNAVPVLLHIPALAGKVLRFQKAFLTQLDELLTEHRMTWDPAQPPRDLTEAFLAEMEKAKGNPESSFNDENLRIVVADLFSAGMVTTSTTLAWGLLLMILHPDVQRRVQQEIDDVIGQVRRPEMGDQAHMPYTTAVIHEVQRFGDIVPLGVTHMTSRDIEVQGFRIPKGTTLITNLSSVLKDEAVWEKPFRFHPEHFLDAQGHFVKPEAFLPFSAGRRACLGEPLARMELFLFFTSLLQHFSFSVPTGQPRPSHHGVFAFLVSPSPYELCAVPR

[5] = 2D6 IC50, CYP enzyme inhibition
[6] = BACE enzyme assay, IC50's in uM, read-out: BACE1 FRET assay
[7] = HEK293, cell-based assay, HEK cells, IC50's in uM, read-out: HEK cell assay
[8] = BACE enzyme assay, read-out: BACE1 FRET assay
[9] = HEK293, HEK cells, read-out: HEK cell assay
[10] = 2D6 IC50 (uM), CYP enzyme inhibition
[11] = HEK293, HEK cell-based assay, IC50's in uM, read-out: HEK cell assay

Compound | IC50 (CYP3A4 (CYP3A)) [nM] | RLM ([3]; rat liver microsomal data) [µL/min/mg] | HLM ([4]; human liver microsomal data) [µL/min/mg] | IC50 [1, 6] [µM] | IC50 [1, 8] [µM] | IC50 [2, 9] [µM] | IC50 (CYP2D6; [10]) [µM] | other results
COCC(=O)N[C@@H](Cc1ccc2c(c1)OCO2)[C@H](O)CN[C@H]1CC2(CCC2)Oc2ncc(CCC(F)(F)F)cc21 [compound 445] | 200 | 121 | 24 |  |  |  |  | IC50 ([1]; Table 2, read-out: BACE1 FRET assay): 0.754 µM; IC50 ([2]; HEK293, Table 2, HEK cells, read-out: HEK cell assay): 0.621 µM; IC50 (CYP2D6; [5]): 4.1 µM
CO[C@H](C)C(=O)N[C@@H](Cc1cc(F)cc(-c2nccs2)c1)[C@H](O)CN[C@H]1CC2(CCC2)Oc2c1cc(CC(C)C)nc2Cl [compound 752] | 100 |  |  |  |  |  |  | IC50 ([1]; BACE enzyme assay IC50, read-out: BACE1 FRET assay): 0.009 µM; IC50 ([2]; HEK293, HEK cell-based assay IC50, read-out: HEK cell assay): 0.067 µM; RLM ([3]; rat liver microsomes): 137 µL/min/mg; HLM ([4]; human liver microsomes): 166 µL/min/mg; IC50 (CYP2D6; 2D6 IC50 (uM), CYP2D6 inhibition): 1.3 µM
CCOCC(=O)N[C@@H](Cc1cccc(-c2ncco2)c1)[C@H](O)CN[C@H]1CC2(CCC2)Oc2ncc(CC(C)(C)C)cc21 [compound 901] | ≥ 27000 | 62 | 74 | 0.01 |  |  |  | IC50 [2, 7]: 0.032 µM; IC50 (CYP2D6; [5]): 24.8 µM
CO[C@H](C)C(=O)N[C@@H](Cc1cccc(F)c1)[C@H](O)CN[C@H]1CC2(CCC2)Oc2c1cc(CC(C)(C)C)nc2-n1ccnc1 [compound 507] | 100 | 95 | 14 |  | 0.022 | 0.057 | 1.9 | 
COCC(=O)N[C@@H](Cc1ccc(F)cc1)[C@H](O)CN[C@H]1CC2(CCC2)Oc2c1cc(CC(C)(C)C)nc2-c1ccncc1 [compound 549] | 100 | 122 | 38 |  | 0.071 | 0.296 | 2 | 
CCCc1cnc2c(c1)[C@@H](NC[C@@H](O)[C@H](Cc1cc(F)cc(-c3nccs3)c1)NC(=O)[C@@H](C)OC)CC1(CCC1)O2 [compound 853] | 400 | 101 | 93 | 0.043 |  |  |  | IC50 [2, 7]: 0.075 µM; IC50 (CYP2D6; [5]): 0.7 µM
CC(C)Cc1cnc2c(c1)[C@@H](NC[C@@H](O)[C@H](Cc1ccc3c(c1)OCO3)NC(=O)[C@H]1CCCO1)CC1(CCC1)O2 [compound 551] | 100 | 112 | 33 |  | 0.044 | 0.367 | 5.7 | 
COCC(=O)N[C@@H](Cc1cc(-c2nccs2)cc(-c2nccs2)c1)[C@H](O)CN[C@H]1CC2(CCC2)Oc2ncc(CC(C)(C)C)cc21 [compound 839] | 100 | 57 | 62 | 0.258 |  |  | 0.4 | IC50 [2, 11]: 0.477 µM
COCC(=O)N[C@@H](Cc1cccc(F)c1)[C@H](O)CN[C@H]1CC2(CCC2)Oc2ccc(C[C@@H](C)F)cc21 [compound 559] | 7100 | 829 | 706 |  | 0.027 | 0.038 | 1.1 | 
CC(C)(C)Cc1cnc2c(c1)[C@@H](NC[C@@H](O)[C@H](Cc1ccc(F)cc1)NC(=O)[C@@H]1CCO1)CC1(CCC1)O2 [Example 441, (2S)—N-((1S,2R)-3-(((4′S)-6′-(2,2-dimethylpropyl)-3′,4′-dihydrospiro[cyclobutane-1,2′-pyrano[2,3-b]pyridin]-4′-yl)amino)-1-((4-fluorophenyl)methyl)-2-hydroxypropyl)-2-oxetanecarboxamide] | 1100 | 124 | 416 |  | 0.012 | 0.012 | ≥ 27 | 
CCO[C@H](C)C(=O)N[C@@H](Cc1ccc2c(c1)OCO2)[C@H](O)CN[C@H]1CC2(CCC2)Oc2ncc(CC(C)C)cc21 [compound 808] | 100 | 179 | 49 | 0.138 |  |  | 2.3 | IC50 [2, 11]: 0.414 µM
CC(=O)N[C@@H](Cc1cc2c(c(-c3ccncc3)c1)OCO2)[C@H](O)CN[C@H]1CC2(CCC2)Oc2ncc(CC(C)(C)C)cc21 [compound 645] | 100 |  |  |  |  |  |  | IC50 ([1]; read-out: BACE1 FRET assay (IC50)): 0.441 µM; IC50 ([2]; HEK293, HEK cells, read-out: HEK cell assay (IC50)): 0.406 µM; RLM ([3]; rat liver microsomes): 62 µL/min/mg; HLM ([4]; human liver microsomes): 451 µL/min/mg; IC50 (CYP2D6; 2D6 IC50, CYP2D6 inhibition): 0.3 µM
